Data published in a melting point compilation (Tetko et al.; mined from patent text by program, amines drawn as free bases though some values may be those of a salt).

melting point [°C]	SMILES
151 to 152	CCCCCNC(=O)[C@H](Cc1ccc(N(CC(=O)O)CC(=O)O)cc1)NC(=O)[C@H](Cc1ccccc1)NC(=O)OC(C)(C)C
134	COCCOc1ccn(O)c(=O)c1
74 to 75	O=C(Nc1ccc(Oc2ccccc2)cc1)N1CCN(c2ncnc3ccccc23)CC1
> 250	CC1CC2=C(OC(NC=N)C2)c2ccc(=O)[nH]c21 (stereo unspecified)
188 to 189	CCCNC(=O)CCn1c(C)nc2c(N)nc3ccccc3c21
208 to 212	Cc1ccc2c(c1)[C@@]1(C)Cc3ccccc3[C@@]1(C)N2 (relative stereo)
203	CCCOc1ccc(S(=O)(=O)NCC2(NCC)CCCCCC2)cc1-c1nc2c([nH]1)c1nncn1c(=O)n2CCC
233 to 234	O=C(Cc1ccc(OC2Cc3ccccc3C2)cc1)NC1(C(=O)O)Cc2ccc(-c3ccc(Cl)cc3)cc2C1 (stereo unspecified)
196	COC(=O)c1ccc2cc(O)ccc2c1
> 300	O=[N+]([O-])c1cc2nc(O)c(O)nc2c2[nH]nnc12
160 to 162	CC(=O)OC1CSC(Oc2cncc(-c3ccc(C)cc3)c2)C(OC(C)=O)C1OC(C)=O (stereo unspecified)
188 to 189	COC(=O)C1=C(C)NC(C)=C(C(=O)OC)C1c1ccccc1Cl
293 to 295	CC(=O)Nc1ccc(C(=O)Nc2c(C)cccc2C)cc1
205 to 207	COc1ncnc2nc(-c3ccccc3)cnc12
> 200	Cc1nc(N2CCc3ccsc3CC2)c([N+](=O)[O-])c(=O)[nH]1
47.5 to 49	O=C(Cl)Cc1ccc([N+](=O)[O-])cc1
171 to 174	Cn1ccc2ncnc(Oc3ccc(NC(=O)Nc4cccc(OC(F)(F)F)c4)c(Cl)c3)c21
96 to 97	CN(C(=O)OCc1ccccc1)c1ccc(OCC(=O)O)cc1
208 to 210	CS(=O)c1ccc(-n2[nH]c3ccccc3c2=O)cc1 (stereo unspecified)
192 to 194	CCCCc1ccc2scc(NC(=O)C(=O)OC)c(=O)c2c1
87 to 89	CCOC(=O)c1nc2cccc(F)c2nc1C
184 to 186	Cc1ccccc1-c1c(CS)n(C)c(=O)c2ccccc12
77 to 79	N#Cc1ccc(CCc2cc(Cl)ccc2OCc2ccccc2)cc1
101 to 103	CCC(CC)Nc1cc(C)nc2c1nc(C)n2-c1c(C)cc(C)cc1C

melting point [°C]	SMILES
< 60	O=[N+]([O-])c1cccnc1Oc1ccc2c(c1)OCC(c1ccccc1)O2 (stereo unspecified)
175	CSc1ccc(-c2nc(SC)ccc2-c2ccc(S(C)(=O)=O)cc2)cc1
94	CCCCC(CC)CNCCCCOc1ccc2ccccc2c1 (stereo unspecified)
295 to 297	N=C(NO)c1ccc(-c2cccc(-c3nc4cc(C(=N)NO)ccc4[nH]3)c2)nc1
78 to 94	CSC(=NC(=O)c1ccccc1)Nc1ccccc1
154 to 156	CC(C)c1cc(C(=O)Nc2ccc(CC(=O)O)cc2)oc1C(C)C
287 to 288	O=C(C=c1sc2n(c1=O)Cc1ccccc1N=2)NC1CCCCC1
190	COc1ccc2c(c1OC)CN(c1nc(N)c3cc(OC)c(OC)c(OC)c3n1)CC2
200 to 202	O=C(Oc1ccccc1)N1CCC2(CC1)SC(c1ccc(Cl)c(Cl)c1)c1ccccc12 (stereo unspecified)
65 to 74	COc1cc(Cc2cnc(NCCSCc3cc(CN(C)C)ccn3)[nH]c2=O)ccn1
175 to 178	O=C(O)c1ccc(C=C(C(=O)C2CC2)C(=O)C2CC2)cc1
177	COC(=O)Nc1cc(C(C)(C)C)[nH]n1
157 to 159	CCOCc1nc2c(N)nc3cccnc3c2n1CC(C)(C)O
147 to 148	COc1cc2c(cc1OC)C(Oc1ccccc1C#N)CN(C)C2 (stereo unspecified)
61 to 72	c1ccc(Cn2ncc3c2Cc2cn[nH]c2-3)cc1
170	Cc1cc(O)c([N+](=O)[O-])cc1C(=O)c1c(Cl)cccc1Cl
71 to 73	Cc1cnc2oc(-c3ccccc3)nc2c1
125 to 130	COC(=O)C1=C(C)NC(C)=C(C(=O)OCCCCl)C1c1cccc([N+](=O)[O-])c1 (stereo unspecified)
166 to 167	Cc1cccc(-c2nsc(C(=O)O)c2C(=O)O)c1
200 to 203	O=C(O)Cn1cc(Cc2nc3c(F)c(F)cc(F)c3s2)c2ccc(F)cc21
108 to 113	CC(C)CC(NC(=O)C(Cc1c[nH]cn1)NC(=O)C(CC(=O)NCCc1ccccc1)Cc1cccc2ccccc12)C(O)CNCc1ccccc1 (mixture of isomers)
216 to 217	O=C1Nc2ccc(F)cc2C(=O)N2CC[C@@H]12
89 to 90	c1ccc(N2CCOCC2)c(N=C2CCCCN2)c1
229 to 231	CCn1ncc2c3[nH]nc4c3c(nc21)CCc1ccccc1-4

melting point [°C]	SMILES
150 to 152	CC(C)(C)[Si](C)(C)OC1CCCc2cnc3cc(OCc4ccccc4[N+](=O)[O-])ccc3c21 (stereo unspecified)
47.5 to 48	CCCNS(=O)(=O)CCCCl
149 to 152	COc1ccc(CN2CCc3cc(O)ccc3C2)c(OC)c1
165 to 168	CCCn1nc(C2CC2)c(C(=O)OCC)c1Cc1ccc(-c2ccccc2S(=O)(=O)NC(C)(C)C)cc1
163 to 164	COc1cccc(CC(=O)O)c1OCc1cc(OCc2ccc3ccccc3n2)nn1C(C)C
140	CN1CC(c2cccc(Cl)c2)C(=O)C(c2cccc(Cl)c2)C1 (stereo unspecified)
101 to 103	CC1(C)CC(c2ccccc2)=NC1=Cc1ccccc1
146 to 147	CCCc1nn(-c2ccc(C(F)(F)F)cn2)cc1CCCOc1c(CC)cccc1CC(=O)O
180	COc1c(OCc2ccccc2)ccc2[nH]ccc(=O)c12
177 to 180	COc1c(Cl)ccc(-c2cc(N)c(Cl)c(C(=O)NOCc3ccc(Cl)cc3)n2)c1F
155 to 156	CS(=O)(=O)c1ccc(-c2cc([N+](=O)[O-])sc2-c2ccc(F)cc2)cc1
140 to 142	CCc1ccc(CCOc2cccc(NC3SC(=O)NC3=O)c2)nc1 (stereo unspecified)
143 to 144	CN1CCN(c2cccc3ccc(NC(=O)OCc4ccccc4)cc23)CC1
103 to 105	COC(=O)c1ccc2ccc(C(C)=O)cc2c1
259 to 268	C#Cc1ccc2c(c1)C=C(C(=O)O)C(C(F)(F)F)N2 (stereo unspecified)
138 to 140	Clc1ccc(-c2cc(Cl)c3ccccc3n2)cc1Cl
182 to 184	O=C1CN(c2ccccc2)C(=O)N1C(=O)c1ccc(Cl)cc1
85 to 87	C[C@@H]1CN(C(=O)OC(C)(C)C)Cc2cc3cc(F)cnc3n21
153 to 154	COC(=O)c1ccc(NC(=O)c2cc(C(C)C)c(C(C)C)s2)cc1Cl
189 to 190	CNc1nc(SC)ncc1C#N
155 to 157	Cc1cc(C)cc(-c2cc(O)c(SCCc3ccccc3)c(=O)o2)c1
72 to 76	COCCCc1cc(N(C)Cc2ccc(-c3ccc(C(F)(F)F)cc3)nc2)ccc1OCC(=O)O
73 to 75	COC(=O)c1ccc(OC[C@H](C)N(C)C(=O)C(F)(F)F)cc1
260 to 263	CC1(C)CS(=O)(=O)CC(C)(C)c2[nH]c(-c3ccccc3)nc21

melting point [°C]	SMILES
140 to 142	Cc1nc[nH]c1CSCCNc1nc(C)c(Cc2ccccc2)c(=O)[nH]1
188 to 189	COC(=O)C(=O)c1ccc(OCCOc2ccc3cc4ccccc4cc3c2)cc1
138	CC(C)c1ccc(N(Cc2ccc(OCC(F)(F)F)cc2)C(=O)Nc2c(C(C)C)cccc2C(C)C)cc1
64 to 66	CCOC(=O)C(C)(C)Cc1cccnc1
174 to 176	O=C(NOCCO)c1cc(Cl)c(F)c(F)c1Nc1ccc(I)cc1
128 to 130	CCOC(=O)c1c(S(=O)(=O)Cl)nn2c(C)cc(C)nc12
173 to 174	O=C1C(Cc2ccccc2)C(c2ccccc2)=Nc2ccccc2N1Cc1ccccc1 (stereo unspecified)
52 to 56	CS(=O)(=O)Nc1ccc(F)cc1OCCCN1CCC(OC(c2ccccc2)c2ccccc2)CC1
227 to 229	CCN(CC)c1ccc2cc(C(=O)O)c(=O)oc2c1
215 to 216	CC(C)(C)OC(=O)N1CC2C(CCC3(C)C(C(=O)O)CCC23)C2(C)CCC(=O)C=C12 (stereo unspecified)
62.2 to 63.1	CCCCCCCCc1cc2c(cc1CCCCCCCC)c1ccsc1c1sccc21
135	CN1CCCC[C@@H]1Cc1c(-c2ccccc2)[nH]c2ccccc12
138 to 140	O=C(O)Cc1ncc2c(n1)-c1ccc(Cl)cc1C(c1ccccc1F)=NC2
185	CCNC(=O)c1ccc(-n2nnc(C(=O)NC3CC3)c2CO)c(O)c1
71 to 73	Nc1c(OCCCl)cccc1[N+](=O)[O-]
147	O=c1c2ccccc2ncn1C1CCN(Cc2ccccc2)CC1
146 to 147	COc1ccc(Cn2cc(C)c3ccc(C(=O)c4ccccc4)cc32)cc1
215 to 220	NC(=O)C(c1ccccc1)(c1ccccc1)c1ccc(N)cn1
222 to 225	COc1ccc(Nc2nc(-c3ccc(OC)c(OC)c3)cs2)nc1
82	Cc1cnc2n(c1=O)CCC2
96 to 97	C[C@@H](n1ncn(-c2ccncc2)c1=O)[C@@]1(c2ccc(F)cc2F)CO1
203 to 206	Cc1cc(N2CCc3ncccc3C2)nc(N2CCCC2)c1NC(=O)Cc1cc(F)cc(F)c1
70 to 72	Cc1ncc2c(n1)N(CC(O)CO)C(=O)CO2 (stereo unspecified)
81 to 83.5	O=C(Nc1ccccc1N1CCc2ccccc21)C1CCC1

SMILES	melting point [°C]
CCNC(=O)CN1C(=O)C(NC(=O)OCc2ccccc2)N=C(c2ccccc2)c2ccccc21 (stereo unspecified)	149
CN1Cc2c(-c3noc(CN4CCCCC4)n3)ncn2-c2ccccc2C1=O	167 to 168
C#CC1(O)CCC2C3CC(C)C4=CC(=O)CCC4C3CCC21CC (stereo unspecified)	148 to 151
Cn1cc(C(=O)NC(=O)N2CC2C#N)c([N+](=O)[O-])n1 (stereo unspecified)	58 to 64
CC12CC(N3CCC(O)CC3)C(O)CC1CCC1C2CCC2(C)C(O)C(N3CCC(O)CC3)CC12 (stereo unspecified)	248 to 250
